Source: patent US20210101881A1 (Ancureall Pharmaceutical (Shanghai) Co., Ltd., priority 2018, published 2021)
Where two headings read alike, the source gives them in different places.

Tested on: MOLM13 cells
Experiment: Growth inhibition of CDK9-positive cell line MOLM13 in vitro (CCK8/MTT assay)
Type: cell-based, human
Settings: Homo sapiens
[1] = MOLM-13, MOLM13 cells, cultured 3 to 6 days, CCK8, read-out: IC50 of the compound for inhibiting cell growth, MOLM13 cells
[2] = MOLM-13, read-out: IC50 of the compound for inhibiting cell growth, MOLM13 cells

SMILES | IC50 [1] | IC50 [2]
COc1ccc(Nc2nccc(-n3cc(C(N)=O)c4ccccc43)n2)cc1 [Compound 17, 1-[2-(4-methoxy-phenylamino)-pyrimidin-4-yl]-1H-indole-3-carboxamide] | 100 to 1000 nM | –
NC(=O)c1cn(-c2ccnc(Nc3ccc(N4CCNCC4)cc3)n2)c2ncccc12 [Compound 135, 1-[2-(4-piperazin-1-yl-phenylamino)-pyrimidin-4-yl]-1H-pyrrolo[2,3-b]pyridine-3-carboxamide] | 100 to 1000 nM | –
NC(=O)c1cn(-c2nc(Nc3cccc(N4CCN(CC5CCCO5)CC4)c3)ncc2F)c2ccccc12 (centres unmarked) [Compound 160, 1-(5-fluoro-2-{3-[4-(tetrahydro-furan-2-ylmethyl)-piperazin-1-yl]-phenylamino}-pyrimidin-4-yl)-1H-indole-3-carboxamide] | 10 to 100 nM | –
COc1cc(Nc2nccc(-n3cc(C(N)=O)c4ccccc43)n2)ccc1N1CCN(C)CC1 [Compound 48, 1-{2-[3-methoxy-4-(4-methyl-piperazin-1-yl)-phenylamino]-pyrimidin-4-yl}-1H-indole-3-carboxamide] | 10 to 100 nM | –
CN(C)CCCN(C)c1ccc(Nc2nccc(-n3cc(C(N)=O)c4ccccc43)n2)cc1 [Compound 76, 1-(2-{4-[(3-dimethylamino-propyl)-methyl-amino]-phenylamino}-pyrimidin-4-yl)-1H-indole-3-carboxamide] | 10 to 100 nM | –
NC(=O)c1cn(-c2ccnc(Nc3ccc(N4CCNCC4)cc3)n2)c2cccc(F)c12 [Compound 29, 4-fluoro-1-[2-(4-piperazin-1-yl-phenylamino)-pyrimidin-4-yl]-1H-indole-3-carboxamide] | 10 to 100 nM | –
NC(=O)c1cn(-c2ccnc(Nc3ccc(F)c(Br)c3)n2)c2ccccc12 [Compound 1, 1-[2-(3-bromo-4-fluoro-phenylamino)-pyrimidin-4-yl]-1H-indole-3-carboxamide] | > 1000 nM | –
CN1CCN(CCN(C)c2ccc(Nc3nccc(-n4cc(C(N)=O)c5ccccc54)n3)cc2)CC1 [Compound 73, 1-[2-(4-{methyl-[2-(4-methyl-piperazin-1-yl)-ethyl]-amino}-phenylamino)-pyrimidin-4-yl]-1H-indole-3-carboxamide] | – | 1 to 10 nM
CN1CCN(c2cc(Nc3ncc(F)c(-n4cc(C(N)=O)c5ccccc54)n3)ccc2F)CC1 [Compound 116, 1-{5-fluoro-2-[4-fluoro-3-(4-methyl-piperazin-1-yl)-phenylamino]-pyrimidin-4-yl}-1H-indole-3-carboxamide] | 10 to 100 nM | –
NC(=O)c1cn(-c2ccnc(Nc3ccc(N4CCOCC4)c(F)c3)n2)c2ccccc12 [Compound 71, 1-[2-(3-fluoro-4-morpholin-4-yl-phenylamino)-pyrimidin-4-yl]-1H-indole-3-carboxamide] | 10 to 100 nM | –
NC(=O)c1cn(-c2ccnc(Nc3ccccn3)n2)c2ccccc12 [Compound 130, 1-[2-(pyridin-2-ylamino)-pyrimidin-4-yl]-1H-indole-3-carboxamide] | > 1000 nM | –
COC1CCN(c2ccc(Nc3nccc(-n4cc(C(N)=O)c5ccccc54)n3)cc2)CC1 [Compound 67, 1-{2-[4-(4-methoxy-piperidin-1-yl)-phenylamino]-pyrimidin-4-yl}-1H-indole-3-carboxamide] | 10 to 100 nM | –
NC(=O)c1cn(-c2ccnc(Nc3ccc(N4CCNCC4)cc3)n2)c2ccccc12 [Compound 27, 1-[2-(4-piperazin-1-yl-phenylamino)-pyrimidin-4-yl]-1H-indole-3-carboxamide] | – | 1 to 10 nM
CN(CCN1CCCC1)c1ccc(Nc2ncc(F)c(-n3cc(C(N)=O)c4ccccc43)n2)cc1F [Compound 95, 1-(5-fluoro-2-{3-fluoro-4-[methyl-(2-pyrrolidin-1-yl-ethyl)-amino]-phenylamino}-pyrimidin-4-yl)-1H-indole-3-carboxamide] | 10 to 100 nM | –
CN1CCN(CCNc2ccc(Nc3nccc(-n4cc(C(N)=O)c5ccccc54)n3)cc2)CC1 [Compound 11, 1-(2-{4-[2-(4-methyl-piperazin-1-yl)-ethylamino]-phenylamino}-pyrimidin-4-yl)-1H-indole-3-carboxamide] | 10 to 100 nM | –
CNC(=O)c1cn(-c2ccnc(Nc3ccc(N4CCNCC4)cc3Cl)n2)c2ccccc12 [Compound 102, 1-[2-(2-chloro-4-piperazin-1-yl-phenylamino)-pyrimidin-4-yl]-1H-indole-3-carboxmethylamide] | > 1000 nM | –
Cc1cc(-n2cc(C(N)=O)c3ccccc32)nc(Nc2ccc(N3CCNCC3)cc2)n1 [Compound 38, 1-[6-methyl-2-(4-piperazin-1-yl-phenylamino)-pyrimidin-4-yl]-1H-indole-3-carboxamide] | 100 to 1000 nM | –
CN1CCC(N2CCN(c3ccc(Nc4nccc(-n5cc(C(N)=O)c6ccccc65)n4)cc3F)CC2)CC1 [Compound 62, 1-(2-{3-fluoro-4-[4-(1-methyl-piperidin-4-yl)-piperazin-1-yl]-phenylamino}-pyrimidin-4-yl)-1H-indole-3-carboxamide] | 10 to 100 nM | –
NC(=O)c1cn(-c2ccnc(Nc3ccc(N4CCOCC4)cc3)n2)c2ccccc12 [Compound 70, 1-[2-(4-morpholin-4-yl-phenylamino)-pyrimidin-4-yl]-1H-indole-3-carboxamide] | 10 to 100 nM | –
NC(=O)c1cn(-c2nc(Nc3cccc(N4CCN(C(=O)C5CCOC5)CC4)c3)ncc2F)c2ccccc12 (centres unmarked) [Compound 170, 1-(5-fluoro-2-{3-[4-(tetrahydro-furan-3-carbonyl)-piperazin-1-yl]-phenylamino}-pyrimidin-4-yl)-1H-indole-3-carboxamide] | 1 to 10 nM | –
Cc1cc(Nc2nccc(-n3cc(C(N)=O)c4ccccc43)n2)ccc1N(C)CCN(C)C [Compound 79, 1-(2-{4-[(2-dimethylamino-ethyl)-methyl-amino]-3-methyl-phenylamino}-pyrimidin-4-yl)-1H-indole-3-carboxamide] | 1 to 10 nM | –
NC(=O)c1cn(-c2nc(Nc3cccc(N4CCC(N5CCOCC5)CC4)c3)ncc2F)c2ccccc12 [Compound 139, 1-{5-fluoro-2-[3-(4-morpholin-4-yl-piperidin-1-yl)-phenylamino]-pyrimidin-4-yl}-1H-indole-3-carboxamide] | 1 to 10 nM | –
CN(CCN1CCOCC1)c1ccc(Nc2nccc(-n3cc(C(N)=O)c4ccccc43)n2)cc1 [Compound 72, 1-(2-{4-[methyl-(2-morpholin-4-ethyl)-amino]-phenylamino}-pyrimidin-4-yl)-1H-indole-3-carboxamide] | 10 to 100 nM | –

Continued, in another order:

IC50 [1] | SMILES | IC50 [2]
1 to 10 nM | Cc1cc(Nc2nccc(-n3cc(C(N)=O)c4ccccc43)n2)ccc1N1CCN(C)CC1 [Compound 50, 1-{2-[3-methyl-4-(4-methyl-piperazin-1-yl)-phenylamino]-pyrimidin-4-yl}-1H-indole-3-carboxamide] | –
1 to 10 nM | Cc1cc(Nc2ncc(F)c(-n3cc(C(N)=O)c4ccccc43)n2)ccc1N1CCN(C(C)C)CC1 [Compound 59, 1-{5-fluoro-2-[4-(4-isopropyl-piperazin-1-yl)-3-methyl-phenylamino]-pyrimidin-4-yl}-1H-indole-3-carboxamide] | –
1 to 10 nM | Cc1cc(Nc2ncc(Cl)c(-n3cc(C(N)=O)c4ccccc43)n2)ccc1N(C)CCN1CCCC1 [Compound 97, 1-(5-chloro-2-{3-methyl-4-[methyl-(2-pyrrolidin-1-yl-ethyl)-amino]-phenylamino}-pyrimidin-4-yl)-1H-indole-3-carboxamide] | –
< 1 nM | CCN1CCN(c2ccc(Nc3ncc(Cl)c(-n4cc(C(N)=O)c5ccccc54)n3)cc2C)CC1 [Compound 58, 1-{5-chloro-2-[4-(4-ethyl-piperazin-1-yl)-3-methyl-phenylamino]-pyrimidin-4-yl}-1H-indole-3-carboxamide] | –
1 to 10 nM | CN(C)CCN1CCN(c2ccc(Nc3nccc(-n4cc(C(N)=O)c5ccccc54)n3)cc2F)CC1 [Compound 63, 1-(2-{4-[4-(2-dimethylamino-ethyl)-piperazin-1-yl]-3-fluoro-phenylamino}-pyrimidin-4-yl)-1H-indole-3-carboxamide] | –
1 to 10 nM | Cc1cnc(Nc2cccc(N3CCN(C)CC3)c2)nc1-n1cc(C(N)=O)c2ccccc21 [Compound 124, 1-{5-methyl-2-[3-(4-methyl-piperazin-1-yl)-phenylamino]-pyrimidin-4-yl}-1H-indole-3-carboxamide] | –
1 to 10 nM | CN1CCC(N2CCN(c3cccc(Nc4ncc(F)c(-n5cc(C(N)=O)c6ccccc65)n4)c3)CC2)CC1 [Compound 148, 1-(5-fluoro-2-{3-[4-(1-methyl-piperidin-4-yl)-piperazin-1-yl]-phenylamino}-pyrimidin-4-yl)-1H-indole-3-carboxamide] | –
1 to 10 nM | COc1ccc2c(c1)c(C(N)=O)cn2-c1nc(Nc2cccc(N3CCN(C4CCOCC4)CC3)c2)ncc1F [Compound 149, 1-(5-fluoro-2-{3-[4-(tetrahydro-pyran-4-yl)-piperazin-1-yl]-phenylamino}-pyrimidin-4-yl)-5-methoxy-1H-indole-3-carboxamide] | –
1 to 10 nM | COc1cnc(Nc2cccc(N3CCN(C)CC3)c2)nc1-n1cc(C(N)=O)c2ccccc21 [Compound 123, 1-{5-methoxy-2-[3-(4-methyl-piperazin-1-yl)-phenylamino]-pyrimidin-4-yl}-1H-indole-3-carboxamide] | –
1 to 10 nM | Cc1cc(Nc2nccc(-n3cc(C(N)=O)c4ccccc43)n2)ccc1N1CCC(N(C)C)CC1 [Compound 68, 1-{2-[4-(4-dimethylamino-piperidin-1-yl)-3-methyl-phenylamino]-pyrimidin-4-yl}-1H-indole-3-carboxamide] | –
1 to 10 nM | COCCN1CCN(c2cccc(Nc3nccc(-n4cc(C(N)=O)c5ccccc54)n3)c2)CC1 [Compound 126, 1-(2-{3-[4-(2-methoxy-ethyl)-piperazin-1-yl]-phenylamino]-pyrimidin-4-yl}-1H-indole-3-carboxamide] | –
1 to 10 nM | CN(CCN1CCCC1)c1ccc(Nc2ncc(Cl)c(-n3cc(C(N)=O)c4ccccc43)n2)cc1 [Compound 94, 1-(5-chloro-2-{4-[methyl-(2-pyrrolidin-1-yl-ethyl)-amino]-phenylamino}-pyrimidin-4-yl)-1H-indole-3-carboxamide] | –
